In patent US20160250255A1, “METHODS FOR INDUCTION OF ANTIGEN-SPECIFIC REGULATORY T CELLS” (IMCYSE SA, priority 2013, published 2016):

Key:
[1] = tested on: dendritic cells; test: Induction of apoptosis of peptide-loaded dendritic cells by peptide-expanded NKT cells (annexin V binding); format: cell-based, C57BL/6 mice; details: NKT cells expanded with the peptide; FIG. 1, means of 2 experiments and SEM; negative control dendritic cells with no peptides
Method: Antigen-presenting cells (APC) are prepared from C57BL/6 mice and loaded with a peptide encompassing a CD1d-restricted NKT cell peptide epitope of hexon-6 capsid protein of adenovirus 5 vector used for gene therapy or gene vaccination.
Dendritic cells loaded with one of these peptides are then incubated with naïve CD62L+ CD4+ cells obtained from the spleen. After several cycles of stimulation, the capacity of NKT cells to induce apoptosis of the corresponding APC is measured and a comparison is established between peptides for their capacity to induce apoptosis.
The results shown in FIG. 1 (means of 2 experiments and SEM) indicate that NKT cells expanded with peptide of either SEQ. ID NO: 1 or SEQ. […] Negative controls include dendritic cells incubated with no peptides.

[2] = tested on: WEHI 231 cells; test: Induction of apoptosis of B cell line WEHI 231 by peptide-expanded NKT cells; format: cell-based, BALB/c mice; details: WEHI 231 B cell line (H-2d) as APC; NKT cells elicited with the peptide; FIG. 3, means of 2 experiments and SEM
From the text: FIG. 3 depicts similar experiments (means of 2 experiments and SEM) but using a B cell line (WEHI 231 cells). WEHI cells are derived from BALB/c mice (H-2d) and not from C57BL/6 mice (H-2b). The histo-incompatibility between the 2 strains prevents presentation of peptides designed for C57BL/6 mice by BALB/c MHC class II, but not presentation by the non-polymorphic CD1d molecule. […] ID NO: 1 or SEQ. ID NO: 2.

[3] = tested on: APCs; test: Capacity of NKT cells to induce apoptosis of APCs, peptide with modified CD1d binding motif; format: cell-based; details: W substituted at position P7 of the CD1d binding motif
Method: Modification of the core sequence of the CD1d binding motif is carried out by introducing a hydrophobic amino acid at position P7 of the motif and generates the peptide IAFRDN FIGLMYW [SEQ. ID NO: 3], in which W at position 7 increases the binding to the hydrophobic pocket of CD1d.

CHGCGGFIGLMYY (redutase motif + hexon 6 capsid protein) [SEQ. ID NO: 2, residues 333 to 339 of the hexon-6 protein containing a thioreductase motif (CxxC) within flanking residues (GG)]
apoptosis of dendritic cells, as measured by annexin V binding [1]: elicit apoptosis of dendritic cells | induction of apoptosis [2]: significant induction of apoptosis

IAFRDNFIGLMYW (modified version of hexon 6 capsid protein) [SEQ. ID NO: 3]
capacity of NKT cells to induce apoptosis of APCs [3]: further boosts the capacity of NKT cells to induce apoptosis of APCs

IAFRDNFIGLMYY (fragment of hexon 6 capsis protein) [SEQ. ID NO: 1, amino acid residues 327 to 339 of the hexon-6 protein of adenovirus 5]
apoptosis of dendritic cells, as measured by annexin V binding [1]: elicit apoptosis of dendritic cells | induction of apoptosis [2]: significant induction of apoptosis
